The assay relates to 876862-298-R-J1-PDC complex spheroids, viability % test/control. The assay can be described thus: Anticancer human tumor 876862-298-R-J1-PDC patient-derived endometrial carcinoma cell line growth inhibition [CLK]. As to conditions: for viability, T/C: stronger effect = lower value. The source says: A high-throughput screen of multi-cell type tumor spheroids was designed to identify active combinations of […] and targeted small molecules. Complex spheroids include a stromal component modeled by human endothelial cells (HUVEC) and fibroblasts modeled by human mesenchymal stem cells (MSCs). The concentration ranges selected for each drug and investigational agent were based upon clinically achievable concentrations if the clinical Cmax of the agent was known.
Compounds. The drugs and investigational agents: cirtuvivint (SM08502; NSC835563), CC-671 (NSC850746), vemurafenib (NSC761431), tapotoclax (NSC804041), sotorasib (NSC818433), adagrasib (NSC831453), MRTX-1133 (NSC836407), BAY2416964 (NSC825713), copanlisib (NSC816437), inavolisib (NSC800729), abemaciclib (NSC768073), osimertinib (NSC779217), entinostat (NSC756642), eltanexor (KPT-8602, NSC794443), venetoclax (NSC766270), ceralasertib (NSC777638), bortezomib (NSC756655), olaparib (NSC753686), talazoparib (NSC767125), alisertib (NSC759677), peposertib (NSC802822), gemcitabine (NSC613327), 5-fluorouracil (NSC19893), SN-38 (NSC673596), oxaliplatin (NSC266046), paclitaxel (NSC125973), and doxorubicin (NSC123127), were obtained from the National Cancer Institute (NCI) Developmental Therapeutics Program Chemical Repository. The FDA-approved anticancer drug set is available from the Developmental Therapeutics Program at https://dtp.cancer.gov/organization/dscb/obtaining/available plates.htm. […] The stock solutions were prepared in dimethyl sulfoxide (DMSO, Sigma-Aldrich, St. Louis, MO, cat. D2650), except for the platinum complexes which were prepared in saline (Quality Biological, Gaithersburg, MD, cat. 114-055-101), at 800-fold the tested concentration and stored at -70 degrees C prior to their use. All drugs and investigational agents were tested over a range starting from a high concentration at or near the clinical Cmax and decreasing in half-log increments. If the clinical Cmax for an agent had not been determined, the highest concentration tested was 10 microM.
Cell Culture. All cells were maintained in an incubator at 37 degrees C and 5% CO2 with 95% humidity. The PDC lines were cultured according to standard operating procedures established by the NCI PDMR. Briefly, all PDCs were thawed and cultured in Matrigel-coated flasks prepared with a working solution of 1X Ham's F-12 nutrient mix, without supplementation (Invitrogen, Waltham, MA, cat. 11765054), 100 U/mL penicillin-streptomycin (Invitrogen, cat. 15140122), and 2.5% Matrigel (Corning Inc., Corning, NY, cat. 354248) for the first three passages. The 947758-054-R-J2-PDC line was cultured in 6B/Colon 1A media, which includes advanced DMEM/F-12 (Thermo Fisher Scientific, cat. 12634028), 10 mM HEPES (Thermo Fisher Scientific, cat. 15630080), 1X GlutaMAX supplement (Thermo Fisher Scientific, cat. 35050061), 0.1 mg/mL primocin (InvivoGen, cat. ant-pm-2), 10% defined fetal bovine serum, heat inactivated (HyClone Laboratories Inc., cat. SH30070.03HI), 1.25 mM N-Acetyl-L-cysteine (Sigma-Aldrich, cat. A9165), 10 mM nicotinamide (Sigma-Aldrich, cat. N0636), 1X B-27 supplement (Thermo Fisher Scientific, cat. 17504044), 1X N-2 supplement (Thermo Fisher Scientific, cat. 17502048), and 10 microM Y-27632 dihydrochloride (Tocris Bioscience, cat. 1254). The 876862-298-R-J1-PDC was cultured in 6E media, which includes all 6B/Colon 1A media components plus 50% L-WRN conditioned media (ATCC, cat. CRL-3276), 50 ng/mL recombinant human EGF recombinant protein (hEGF; Thermo Fisher Scientific, cat. PHG0311), 10 ng/mL recombinant human fibroblast growth factor 10 (hGFG-10; PeproTech, cat. 100-26), 1 ng/mL recombinant human fibroblast growth factor 2 (hFGF-2; PeproTech, cat. 100-18B), and 1 µM prostaglandin E2 (PGE2; Tocris, cat. 2296). The 227483-062-R1-J1-PDC line was cultured in Panc media, containing all 6E components except hFGF-2, with the addition of 500 nM SB-431542 (Selleckchem, cat. S1067) and 10 nM gastrin (Tocris, cat. 3006). […]

SMILES strings stand for the structures. Several values for one entry are separate records, joined by “and”; a condition that tells them apart may be missing. Identical values can stand only once.
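Note: spheroids exposed to drugs for 7 days before readout.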
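Throughout, for viability, T/C: 100% = DMSO vehicle control wells.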

A word on the viability, T/C: it is the result in the treated group divided by that in the control group, in per cent. By IC50 is commonly meant the concentration at which inhibition is half-maximal. Regarding `CCN1CCN(Cc2ccc(Nc3ncc(F)c(-c4cc(F)c5nc(C)n(C(C)C)c5c4)n3)nc2)CC1`, the viability, T/C is 91.2% and 109% (compound 0.00316 µM); 86.9% and 101% (compound 0.01 µM); 86.5% and 84.8% (compound 0.0316 µM); 68.3% and 76.1% (compound 0.1 µM); 52.7% and 61.5% (compound 0.316 µM); 46.3% and 48.5% (compound 1 µM). Also, the IC50 (curve of compound) was 483 nM and 891 nM.
Regarding `CCc1c2c(nc3ccc(O)cc13)-c1cc3c(c(=O)n1C2)COC(=O)[C@]3(O)CC`, the viability, T/C reads like this: (compound 0.00316 µM) 48% and 36.5%; (compound 0.01 µM) 9.1% and 7.37%; (compound 0.0316 µM) 6.83% and 6.05%; (compound 0.1 µM) 5.12% and 5.99%; (compound 0.316 µM) 3.64% and 4.64%; (compound 1 µM) 2.58% and 4.7%. In addition, for the setting “curve of compound”, the IC50 is below 3.16 nM.
Consider `CN1CCN(c2cc(C(=O)Nc3cc4cc(-c5cnn(C)c5)ccc4cn3)ccn2)CC1`, for which the viability, T/C runs as follows: (compound 0.0316 µM) 95.1% [middle of 12 runs]; (compound 0.1 µM) 49.8% [middle of 12 runs]; (compound 0.316 µM) 3.46% [middle of 12 runs]; (compound 1 µM) 1.68% [middle of 12 runs]; (compound 3.16 µM) 1.49% [middle of 12 runs]; (compound 10 µM) 1.35% [middle of 12 runs]. Moreover, the half-maximal inhibitory concentration (IC50) (compound alone, run of 09/18/2023) is 99.4 nM [middle of 12 runs].
`CNC(=O)c1ccc(Nc2nc(OC3CCCC3)c3c(-c4ccc5nc(C)oc5c4)c[nH]c3n2)c(OC)c1`: the viability, T/C is 86% [middle of 12 runs] (compound 0.0316 µM); 49.5% [middle of 12 runs] (compound 0.1 µM); 37.8% [middle of 12 runs] (compound 0.316 µM); 28.6% [middle of 12 runs] (compound 1 µM); 24.6% [middle of 12 runs] (compound 3.16 µM); 23.1% [middle of 12 runs] (compound 10 µM). Moreover, the IC50 (compound alone, run of 09/19/2023) is 112 nM [middle of 11 runs].
With `COC1C=CCC(C)C(C)S(=O)(=O)NC(=O)c2ccc3c(c2)N(CC2CCC21)CC1(CCCc2cc(Cl)ccc21)CO3` (stereo unspecified), the viability, T/C runs as follows: (compound 0.0316 µM) 112% and 102%; (compound 0.1 µM) 97.2% and 97.7%; (compound 0.316 µM) 102% and 97.5%; (compound 1 µM) 107% and 99.3%; (compound 3.16 µM) 109% and 99.7%; (compound 10 µM) 38.3% and 29.6%. In addition, the IC50 (curve of compound) was 8200 nM and 7140 nM.
Regarding `COc1c(OCCCN2CCOCC2)ccc2c3n(c(=NC(=O)c4cnc(N)nc4)nc12)CCN3`, the viability, T/C by setting is: (compound 0.00316 µM) 105% and 81.8%; (compound 0.01 µM) 89.7% and 83.9%; (compound 0.0316 µM) 70.9% and 57%; (compound 0.1 µM) 37.8% and 26.3%; (compound 0.316 µM) 17% and 14.9%; (compound 1 µM) 15% and 16%. The IC50 (curve of compound) is 63.5 nM and 42.1 nM.
Consider `Cn1ncnc1[C@H]1c2n[nH]c(=O)c3cc(F)cc(c23)N[C@@H]1c1ccc(F)cc1`, for which the viability, T/C by setting is: (compound 0.000316 µM) 110% and 102%; (compound 0.001 µM) 91.2% and 96.9%; (compound 0.00316 µM) 106% and 96.8%; (compound 0.01 µM) 103% and 105%; (compound 0.0316 µM) 107% and 114%; (compound 0.1 µM) 107% and 101%. In addition, the IC50 (curve of compound) was above 100 nM.
As for `NC(=O)C(=Cn1cnc(-c2cc(C(F)(F)F)cc(C(F)(F)F)c2)n1)c1cncnc1`, the viability, T/C (compound 0.00949 µM) was 78% and 78.2%; the viability, T/C (compound 0.03 µM) was 54.1% and 60.3%; the viability, T/C (compound 0.0949 µM) is 37.5% and 38.2%; the viability, T/C (compound 0.3 µM) is 33.6% and 27.7%; the viability, T/C (compound 0.949 µM) is 24.4% and 18.7%; the viability, T/C (compound 3 µM) was 13.4% and 12.4%. In addition, under “curve of compound”, the half-inhibitory concentration (IC50) is 47.3 nM and 52.2 nM.

Source of the values: PubChem BioAssay AID2060607 (Molecular Pharmacology Branch, DTP, NCI, 2025).
